For test [1], the system named is CD69 in human whole blood. The test is described as follows: Induction of CD69 in human whole blood (hWB). Type of test: cell-based. Particulars: heparinized human whole blood, 17 h, CD69 surface staining; 100% set to 1 uM resiquimod; average where assay repeated. How it is done: The induction of Type I interferon (IFN) MX-1 genes and the B-cell activation marker CD69 are downstream events that occur upon activation of the TLR7 pathway. The following is a human whole blood assay that measures their induction in response to a TLR7 agonist.
Heparinized human whole blood was harvested from human subjects and treated with test TLR7 agonist compounds at 1 mM. The blood was diluted with RPMI 1640 media and Echo was used to predot 10 nL per well giving a final concentration of 1 uM (10 nL in 10 uL of blood). After mixing on a shaker for 30 sec, the plates were covered and placed in a 37° C. chamber for o/n=17 hrs. Fixing/lysis buffer was prepared (5×->1×in H2O, warm at 37° C.; Cat# BD 558049) and kept the perm buffer (on ice) for later use.
For surface markers staining (CD69): prepared surface Abs: 0.045 ul hCD14-FITC (ThermoFisher Cat # MHCD1401)+0.6 ul hCD19-ef450 (ThermoFisher Cat #48-0198-42)+1.5 ul hCD69-PE (cat# BD555531)+0.855 ul FACS buffer. Added 3 ul/well, spin1000 rpm for 1 min and mixed on shaker for 30 sec, put on ice for 30 mins. Stop stimulation after 30 minutes with 70 uL of prewarmed 1×fix/lysis buffer and use Feliex mate to resuspend (15 times, change tips for each plate) and incubate at 37° C. for 10 minutes.
Centrifuge at 2000 rpm for 5 minutes aspirate with HCS plate washer, mix on shaker for 30 sec and then wash with 70 uL in dPBS and pelleted 2 xs (2000 rpm for 5 min) and 50 ul wash in FACS buffer pelleted 1 xs(2000 rpm for 5 min). Mix on shaker for 30 sec. For Intracellular markers staining (MX-1): Add 50 ul of BD Perm buffer III and mix on shaker for 30 sec. Incubate on ice for 30 minutes (in the dark). Wash with 50 uL of FACS buffer 2×(spin @2300 rpm×5 min after perm) followed by mixing on shaker for 30 sec. Resuspended in 20 ul of FACS buffer containing MX1 antibody ( )(4812)-Alexa 647: Novus Biologicals #NBP2-43704AF647) 20 ul FACS bf+0.8 ul hlgG+0.04 ul MX-1. Spin 1000 rpm for 1 min, mix on shaker for 30 se and the samples were incubated at RT in the dark for 45 minutes followed by washing 2×FACS buffer (spin @2300 rpm×5 min after perm). Resuspend 20 ul (35 uL total per well) of FACS buffer and cover with foil and place in 4° C. to read the following day. Plates were read on iQuePlus. The results were loaded into toolset and […] curves are generated in curve master. The y-axis 100% is set to 1 uM of resiquimod.

A further test has as its target T1, human TLR7 (Homo sapiens, UniProt Q9NYK1).
T1 construct: host or cells: HEK-Blue TLR7 cells (engineered human embryonic kidney cells)
T1 sequence (Q9NYK1 27-1049): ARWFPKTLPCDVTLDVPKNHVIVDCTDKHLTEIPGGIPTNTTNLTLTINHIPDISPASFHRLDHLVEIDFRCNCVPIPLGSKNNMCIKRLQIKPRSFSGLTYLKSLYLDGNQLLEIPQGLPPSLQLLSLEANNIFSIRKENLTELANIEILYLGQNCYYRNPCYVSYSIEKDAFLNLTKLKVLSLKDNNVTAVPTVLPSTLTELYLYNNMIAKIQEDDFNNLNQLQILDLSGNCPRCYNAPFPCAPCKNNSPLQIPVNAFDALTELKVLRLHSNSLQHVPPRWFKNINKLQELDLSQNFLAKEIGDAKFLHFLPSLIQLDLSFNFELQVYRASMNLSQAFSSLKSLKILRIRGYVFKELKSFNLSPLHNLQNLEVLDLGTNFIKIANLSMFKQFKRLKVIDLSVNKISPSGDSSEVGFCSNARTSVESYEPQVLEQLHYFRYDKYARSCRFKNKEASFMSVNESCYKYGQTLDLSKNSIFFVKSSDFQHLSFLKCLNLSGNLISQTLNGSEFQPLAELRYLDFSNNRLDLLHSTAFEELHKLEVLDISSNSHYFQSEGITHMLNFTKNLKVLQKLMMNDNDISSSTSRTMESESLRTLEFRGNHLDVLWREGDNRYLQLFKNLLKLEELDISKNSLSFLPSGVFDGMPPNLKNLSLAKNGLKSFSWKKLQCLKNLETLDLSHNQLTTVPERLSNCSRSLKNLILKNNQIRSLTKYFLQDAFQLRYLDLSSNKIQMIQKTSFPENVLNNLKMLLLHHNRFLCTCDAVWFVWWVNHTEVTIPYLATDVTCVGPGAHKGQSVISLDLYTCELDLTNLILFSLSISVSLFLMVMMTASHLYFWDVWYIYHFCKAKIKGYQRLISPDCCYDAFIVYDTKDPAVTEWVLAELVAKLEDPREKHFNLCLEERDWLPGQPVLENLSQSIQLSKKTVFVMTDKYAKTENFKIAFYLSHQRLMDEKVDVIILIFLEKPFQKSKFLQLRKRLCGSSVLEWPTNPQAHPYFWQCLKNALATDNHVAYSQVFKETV
Nature of the test: Human TLR7 agonist activity (hTLR7 reporter) assay in HEK-Blue TLR7 cells, SEAP readout. Type of test: cell-based. As to conditions: 18 h treatment, average where assay repeated. How it is done:
This procedure describes a method for assaying human TLR7 (hTLR7) agonist activity of the compounds disclosed in this specification.
HEK-Blue™ TLR7 cells were added to each well of a 384-well tissue-culture plate (15,000 cells per well) and incubated 16-18 h at 37° C., 5% CO2. Compounds (100 nl) were dispensed into wells containing the HEK-Blue™ TLR cells and the treated cells were incubated at 37° C., 5% CO2. After 18 h treatment ten microliters of freshly-prepared Quanti-Blue™ reagent (Invivogen) was added to each well, incubated for 30 min (37° C., 5% CO2) and SEAP levels measured using an Envision plate reader (OD=620 nm). The half maximal effective concentration values (EC50; compound concentration which induced a response halfway between the assay baseline and maximum) were calculated.

As to `COc1cc(CN2CC3(C2)CN(C(C)=O)C3)ccc1Cn1ncc2nc(N)nc(NCC3CC4(CC4)C3)c21` [Compound 108], the concentration giving a half-maximal response (EC50) in test [1] was determined as 0.0529 µM; at human TLR7, 0.0501 µM.

As for `CCCCNc1nc(N)nc2cnn(Cc3ccc(CN4CC5(C4)CN(C(=O)C4(C)CC4)C5)cc3OC)c12` [Compound 111], the concentration giving a half-maximal response (EC50) in test [1] worked out at 0.0249 µM; at human TLR7 it was 0.0525 µM.

With `CCC[C@@H](CCO)Nc1nc(N)nc2cnn(Cc3ccc(CN4CC5(CCO5)C4)cc3OC)c12` [Compound 112], the values for the EC50 (in test [1]; at human TLR7) were 0.333 µM and 0.0015 µM, respectively.

In the case of `CCC[C@@H](CCO)Nc1nc(N)nc2cnn(Cc3ccc(CN4CC5(CCOCC5)C4)cc3OC)c12` [Compound 113], the EC50 worked out at 0.0005 µM in test [1] and 0.0046 µM on human TLR7.

With `COc1cc(CN2CC3(CCOCC3)C2)ccc1Cn1ncc2nc(N)nc(NCC3CC4(C3)CC4F)c21` (stereo not drawn) [Compound 117], the 50% effective concentration (EC50) in test [1] was 0.122 µM; on human TLR7, 0.141 µM.

Take `COc1cc(CN2C[C@H]3COC[C@H]3C2)ccc1Cn1ncc2nc(N)nc(NCC3CC4(C3)CC4F)c21` (stereo partly drawn) [Compound 119]: the results for the EC50 (in test [1]; on human TLR7) were 0.258 µM and 0.144 µM, respectively.

For `COc1cc(CN2CC3(C2)CN(C(C)=O)C3)ccc1Cn1ncc2nc(N)nc(NCC3CC4(C3)CC4F)c21` (stereo not drawn) [Compound 121], the EC50 in test [1] turned out to be 0.16 µM; at human TLR7, 0.358 µM.

Take `COc1cc(CN2CC3(CCO3)C2)ccc1Cn1ncc2nc(N)nc(NCC3CC4(C3)CC4F)c21` (stereo not drawn) [Compound 127]: the EC50 in test [1] is 0.413 µM; at human TLR7, 0.214 µM.

Regarding `COc1cc(CN2CC3(CN(C)C3)C2)ccc1Cn1ncc2nc(N)nc(NCC3CC4(CC4)C3)c21` [Compound 131], the results for the EC50 (in test [1]; at human TLR7) were 0.0046 µM and 0.234 µM, respectively.

As for `COc1cc(CN2CC3(C2)CS(=O)(=O)C3)ccc1Cn1ncc2nc(N)nc(NCC3CC4(C3)CC4(F)F)c21` (stereo not drawn) [Compound 139], the EC50 in test [1] turned out to be 0.464 µM; on human TLR7, 0.382 µM.

For `COc1cc(CN2C[C@@H]3C[C@H]2CN3)ccc1Cn1ncc2nc(N)nc(NCC3CC4(C3)CC4(F)F)c21` (stereo partly drawn) [Compound 141], the EC50 in test [1] is 0.244 µM; on human TLR7, 0.266 µM.

For the compound `COc1cc(CN2CC3(C2)CS(=O)(=O)C3)ccc1Cn1ncc2nc(N)nc(NCC3CC4(CC4)C3)c21` (stereo not drawn) [Compound 145], the values for the EC50 (in test [1]; on human TLR7) were 0.326 µM and 0.179 µM, respectively.

`COc1cc(CN2CC3(CC(O)C3)C2)ccc1Cn1ncc2nc(N)nc(NCC3CC4(CC4)C3)c21` (stereo not drawn) [Compound 146]: the values for the EC50 (in test [1]; at human TLR7) were 0.0089 µM and 0.0425 µM, respectively.

On to `COc1cc(CN2CC3(CC(OC)C3)C2)ccc1Cn1ncc2nc(N)nc(NCC3CC4(CC4)C3)c21` (stereo not drawn) [Compound 147], for which the EC50 is 0.037 µM in test [1] and 0.0405 µM on human TLR7.

As to `COc1cc(CN2C[C@H]3CN(C)C[C@H]3C2)ccc1Cn1ncc2nc(N)nc(NCC3CC4(CC4)C3)c21` [Compound 148], the concentration for a half-maximal effect (EC50) in test [1] stood at 0.0096 µM; on human TLR7, 0.0742 µM.

Regarding `COc1cc(C(=O)N2CC3(CN(C)C3)C2)ccc1Cn1ncc2nc(N)nc(NCC3CC4(C3)CC4(F)F)c21` (stereo not drawn) [Compound 149], the EC50 in test [1] was determined as 0.031 µM; on human TLR7, 0.042 µM.

As for `COc1cc(C(=O)N2C[C@H]3CN(C)C[C@H]3C2)ccc1Cn1ncc2nc(N)nc(NCC3CC4(C3)CC4(F)F)c21` (stereo partly drawn) [Compound 150], the results for the concentration giving a half-maximal response (EC50) (in test [1]; at human TLR7) were 0.0172 µM and 0.0094 µM, respectively.

Consider `COc1cc(C(=O)N2C[C@@H]3C[C@H]2CN3C)ccc1Cn1ncc2nc(N)nc(NCC3CC4(C3)CC4(F)F)c21` (stereo partly drawn) [Compound 151], for which the EC50 in test [1] came out at 0.0324 µM; on human TLR7, 0.045 µM.

For the compound `COc1cc(CN2CC3(CNC3)C2)ccc1Cn1ncc2nc(N)nc(NCC3CC(C4CC4)C3)c21` (stereo not drawn) [Compound 152], the values for the EC50 (in test [1]; on human TLR7) were 0.152 µM and 0.167 µM, respectively.

In the case of `COc1cc(CNC2CCC2)ccc1Cn1ncc2nc(N)nc(NCC3CC4(CCC4)C3)c21` [Compound 153], the EC50 is 0.189 µM in test [1] and 0.0305 µM on human TLR7.

In the case of `COc1cc(CNC2CCOCC2)ccc1Cn1ncc2nc(N)nc(NCC3CC4(CCC4)C3)c21` [Compound 154], the concentration for a half-maximal effect (EC50) in test [1] amounted to 0.131 µM; on human TLR7 it was 0.0269 µM.

Take `COc1cc(CN2CC3(CNC3)C2)ccc1Cn1ncc2nc(N)nc(NCC3CC4(CCC4)C3)c21` [Compound 155]: the values for the 50% effective concentration (EC50) (in test [1]; on human TLR7) were 0.552 µM and 0.583 µM, respectively.

For `COc1cc(CN2C[C@@H]3C[C@H]2CN3)ccc1Cn1ncc2nc(N)nc(NCC3CC4(CCC4)C3)c21` [Compound 156], the results for the EC50 (in test [1]; at human TLR7) were 0.374 µM and 0.0769 µM, respectively.

Turning to `COc1cc(CN2C[C@H]3CNC[C@H]3C2)ccc1Cn1ncc2nc(N)nc(NCC3CC4(CCC4)C3)c21` [Compound 157], the half-maximal effective concentration (EC50) in test [1] came out at 0.364 µM; at human TLR7 it was 0.0657 µM.

`COc1cc(CN2CC3(CC(O)C3)C2)ccc1Cn1ncc2nc(N)nc(NCC3CC4(CCC4)C3)c21` (stereo not drawn) [Compound 158]: the EC50 in test [1] is 0.0391 µM; on human TLR7 it was 0.038 µM.

`COc1cc(C(=O)N2C[C@H]3CNC[C@H]3C2)ccc1Cn1ncc2nc(N)nc(NCC3CC4(C3)CC4(F)F)c21` (stereo partly drawn) [Compound 159]: the half-maximal effective concentration (EC50) came out at 1 µM in test [1] and 0.909 µM on human TLR7.

In the case of `COc1cc(C(=O)NCCN(C)C)ccc1Cn1ncc2nc(N)nc(NCC3CC4(C3)CC4(F)F)c21` (stereo not drawn) [Compound 163], the concentration for a half-maximal effect (EC50) in test [1] amounted to 0.269 µM; on human TLR7, 0.705 µM.

`COc1cc(CO)ccc1Cn1ncc2nc(N)nc(NCC3CC4(CC4)C3)c21` [Compound 166, (4-((5-amino-7-((spiro[2.3]hexan-5-ylmethyl)amino)-1H-pyrazolo[4,3-d]pyrimidin-1-yl)methyl)-3-methoxyphenyl)methanol]: the EC50 in test [1] turned out to be 0.117 µM; on human TLR7, 0.261 µM.

In the case of `COc1cc(CN[C@H]2C[C@H](O)C2)ccc1Cn1ncc2nc(N)nc(NCC3CC4(CC4)C3)c21` [Compound 167], the EC50 in test [1] is 0.0017 µM; at human TLR7, 0.023 µM.

As for `COc1cc(CN2CC(CCO)C2)ccc1Cn1ncc2nc(N)nc(NCC3CC4(CC4)C3)c21` [Compound 168], the EC50 in test [1] was 0.0038 µM; on human TLR7 it was 0.0304 µM.
